{"source": "patent US11058713B2", "about": "“Treatment and diagnosis of ocular surface disorders” (Advaite LLC., priority 2017, dated 2021)", "molecules": {"B1": {"name": "OSM: OSM recombinant protein applied to mouse corneas (protein, UniProt P53347 25-206, looked up)", "Oncostatin-M": "NRGCSNSSSQLLSQLQNQANLTGNTESLLEPYIRLQNLNTPDLRAACTQHSVAFPSEDTLRQLSKPHFLSTVYTTLDRVLYQLDALRQKFLKTPAFPKLDSARHNILGIRNNVFCMARLLNHSLEIPEPTQTDSGASRSTTTPDVFNTKIGSCGFLWGYHRFMGSVGRVFREWDDGSTRSRR"}, "B2": {"name": "rNGAL: recombinant NGAL (neutrophil gelatinase-associated lipocalin) (protein, UniProt P80188 21-198, looked up)", "Neutrophil …": "QDSTSDLIPAPPLSKVPLQQNFQDNQFQGKWYVVGLAGNAILREDKDPQKMYATIYELKEDKSYNVTSVLFRKKKCDYWIRTFVPGCQPGEFTLGNIKSYPGLTSYLVRVVSTNYNQHAMVFFKKVSQNREYFKITLYGRTKELTSELKENFIRFSKSLGLPENHIVFPVPIDQCIDG"}}, "key": {"stimulated neutrophils": {"tested_on": "stimulated neutrophils", "assay": "Stimulated neutrophils: inflammatory products (green staining strands), photographs", "assay_type": "cell-based"}, "[1]": {"tested_on": "neutrophil inflammatory products", "assay": "Kinetic assay of neutrophil inflammatory products, stimulation by 1 nM PMA", "assay_type": "cell-based", "conditions": "FIGS. 9A and 9B"}, "oncostatin M (OSM) [2]": {"tested_on": "oncostatin M (OSM)", "assay": "Recombinant OSM protein levels after incubation with heparin or NAb", "assay_type": "binding", "conditions": "FIG. 15", "description": "(§1) The molecular component of Neutrophil Extracellular Traps (NETs) that may cause epitheliopathy was investigated. […] OSM was present in abundance in mucocellular aggregates (MCA) collected from definite oGVHD patients. OSM is a heparin binding protein, therefore incubation with heparin or Neutralizing antibody (NAb) reduced recombinant OSM protein levels (FIG. 15)."}, "oncostatin M (OSM) [3]": {"target": "T1, oncostatin M (OSM) (Mus musculus, UniProt P53347)", "T1 construct": "In murine NETs, OSM is present in great abundance; endogenous in cells; host or cells: murine neutrophil extracellular traps (NETs)", "T1 sequence (P53347 23-206)": "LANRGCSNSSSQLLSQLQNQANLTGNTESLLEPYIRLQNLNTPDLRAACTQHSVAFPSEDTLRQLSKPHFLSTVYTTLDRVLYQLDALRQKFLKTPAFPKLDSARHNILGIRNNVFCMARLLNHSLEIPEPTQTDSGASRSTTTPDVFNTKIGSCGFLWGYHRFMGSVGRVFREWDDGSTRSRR", "assay": "OSM levels in murine NETs", "assay_type": "binding", "conditions": "614.67±95.73 pg/mL without heparin", "description": "as §1"}, "[4]": {"tested_on": "human corneal epithelial cells", "assay": "Cytotoxicity assay (LDH)", "assay_type": "cell-based"}, "mouse corneas": {"tested_on": "mouse corneas", "assay": "Recombinant OSM protein induced corneal epithelial disease", "assay_type": "in vivo", "conditions": "for corneal fluorescein staining at Day 5: application of OSM, OSM incubated with heparin or OSM incubated with OSM NAb", "description": "Excessive amounts of OSM can cause corneal epithelial disease similar to that seen in DED patients. […] OSM inhibitors used can be selected from neutralizing antibodies, neutralizing peptides and small molecules and other gene based approaches. These OSM inhibitors can be used independently as therapeutic proteins/peptides/small molecules for DED treatment.\nIn addition, whether OSM recombinant protein can produce epitheliopathy similar to NETs and whether reducing OSM levels using heparin or OSM NAb abrogates that effect was also investigated. […] These experiments indicate that NETs cause corneal epitheliopathy possibly due to presence of OSM and epitheliopathy can be prevented with heparin. To test this theory, a patient with oGVHD who had corneal and conjunctival epitheliopathy was treated with heparin eye drop (100 IU/mL) three times a day for four weeks."}, "[5]": {"tested_on": "immortalized meibomian gland epithelial cells", "assay": "Meibomian gland cell differentiation, lipid accumulation by LipidTOX staining", "assay_type": "cell-based, human", "description": "Meibomian gland disease is a conspicuous feature of oGVHD. As compared to normal meibomian gland, patients with oGVHD have extensive atrophy or truncation of meibomian glands. […] To determine the effect of NETs on meibomian glands, immortalized meibomian gland epithelial cells were cultivated and differentiated. Lipid accumulation was detected using LipidTOX staining. […] The reduction in lipid accumulation with NETs was abrogated with addition of NGAL NAb (21.21±0.83 A.U). […] The reduction of lipid accumulation with rNGAL was abrogated with addition of NGAL NAb (17.82±0.43 A.U) and heparin (15.66±1.72 A.U)."}, "[6]": {"tested_on": "human corneal epithelial cells", "assay": "Scratch wound healing of confluent corneal epithelial cells", "assay_type": "cell-based", "conditions": "anticoagulant dose heparin 1000 and 10,000 IU/ml; versus RPMI control and 100 IU/ml", "description": "In this experiment human corneal epithelial cells were grown to confluence and scratch wounds were made."}, "human MG cells": {"tested_on": "human MG cells", "assay": "Meibomian gland cell proliferation", "assay_type": "cell-based", "conditions": "KSFM medium with rNGAL; reduction with rNGAL on addition of NGAL NAb or heparin", "description": "Next, the effect of NGAL on proliferation of human MG cells was investigated. […] FIG. 20. […] The reduction of MG cell proliferation with rNGAL was abrogated with addition of NGAL NAb and heparin."}, "murine corneas": {"tested_on": "murine corneas", "assay": "Murine model of neutrophil product (NETs) induced corneal disease", "assay_type": "in vivo", "description": "Neutrophil products (NETs) when applied to corneal surface induced epithelial disease and fluorescein staining. […] Protein levels of inflammatory cytokines were also determined (IL-lb and IP-10) using a Magpix platform.\nWhether reducing OSM levels in naive NETs using heparin or OSM NAb abrogates NETs induced epitheliopathy in murine corneas was investigated. Naive NETs, heparinized NETs and OSM NAb incubated NETs was applied to naïve murine corneas for five consecutive days. […] At Day 5, corneas were excised and abundance of inflammatory cytokines (IL-1β, IL-6 and IP-10) were determined in lysates. […] FIG. 16."}, "[7]": {"tested_on": "mucocellular aggregates from a patient with severe tear deficient DED", "assay": "Ex vivo dissolution of mucocellular aggregates (Hematoxylin-Eosin and Sytox Green)", "set-up": "species or system human", "conditions": "sub-anticoagulant heparin 100 IU/ml; substantially intact with culture media (RPMI) only", "description": "The extracellular structures (green strands) were dissolved when treated with sub-anticoagulant heparin (100 IU/ml), but remained substantially intact when treated with only the culture media (RPMI)."}, "[8]": {"conditions": "DFM medium with rNGAL, rNGAL plus NGAL NAb or rNGAL plus heparin, DFM alone 24.92±1.21"}, "[9]": {"conditions": "Heparin addition to NETs, protein level, Magpix platform"}}, "note": "“Also recorded” adds a separate entry of the source."}
{"molecule": "Enoxaparin", "values": [{"measurement": "neutrophil inflammatory products (green staining strands)", "setting": "stimulated neutrophils; Enoxaparin 10, 20, 40 and 80 μg/mL, FIG. 6", "value": "dose dependent fashion"}, {"measurement": "inflammatory strands of neutrophils", "setting": "stimulated neutrophils; Enoxaparin at 80 μg/mL", "value": "almost completely"}, {"measurement": "amount of neutrophil inflammatory products produced with stimulation by 1 nM PMA", "setting": "[1]", "value": "dose dependent reduction; also recorded: dose dependent manner"}]}
{"molecule": "heparin", "values": [{"measurement": "recombinant OSM protein levels", "setting": "oncostatin M (OSM) [2]", "value": "reduced"}, {"measurement": "OSM levels in heparinized NETs", "setting": "oncostatin M (OSM) [3]", "value": "19.95 ± 0.00", "unit": "pg/mL"}, {"measurement": "LDH", "setting": "[4]; anticoagulant dose heparin 1000 and 10,000 IU/ml, versus RPMI control and 100 IU/ml", "value": "significantly higher"}, {"measurement": "human corneal epithelial cell cytotoxicity", "setting": "[4]; anticoagulant dose of heparin (1000 and 10,000 IU/ml)", "value": "causes human corneal epithelial cell cytotoxicity"}, {"measurement": "human corneal epithelial cell cytotoxicity", "setting": "[4]; sub-anticoagulant dose of heparin (100 IU/ml)", "value": "does not cause cytotoxicity"}, {"measurement": "corneal fluorescein staining at Day 5", "setting": "mouse corneas", "value": "1.20±0.20"}, {"measurement": "corneal fluorescein staining induced by OSM", "setting": "mouse corneas; heparin 100 IU/ml or neutralizing antibody added to recombinant OSM, FIG. 13", "value": "significantly reduced"}, {"measurement": "fluorescence intensity of LipidTox Green neutral lipid stain (accumulation of lipids)", "setting": "[5]; DFM medium with NETs, heparinized NETs or NETs plus NGAL NAb, DFM alone 24.92±1.21, KSFM 6.93±0.57", "value": "33.98±2.18", "unit": "A.U"}, {"measurement": "fluorescence intensity of LipidTox Green neutral lipid stain (accumulation of lipids)", "setting": "[5]; [8]", "value": "15.66±1.72", "unit": "A.U"}, {"measurement": "neutrophil inflammatory products (green staining strands)", "setting": "stimulated neutrophils; heparin 0.01, 0.1, 1, 10 and 100 IU/mL, FIG. 5", "value": "dose dependent fashion"}, {"measurement": "amount of inflammatory strands of neutrophils", "setting": "stimulated neutrophils; heparin at 100 IU/ml", "value": "almost completely"}, {"measurement": "Epithelial cell healing (scratch wounds)", "setting": "[6]", "value": "significantly delayed"}, {"measurement": "amount of neutrophil inflammatory products produced with stimulation by 1 nM PMA", "setting": "[1]", "value": "dose dependent reduction; also recorded: dose dependent manner"}, {"measurement": "MG cell proliferation", "setting": "human MG cells", "value": "abrogated"}, {"measurement": "epithelial disease and fluorescein staining", "setting": "murine corneas; Heparin (100 IU/ml) added to NETs applied to corneal surface", "value": "significantly reduced"}, {"measurement": "corneal abundance of IL-lb", "setting": "murine corneas; [9]", "value": "significantly reduced"}, {"measurement": "corneal abundance of IP-10", "setting": "murine corneas; [9]", "value": "significantly reduced"}, {"measurement": "corneal fluorescein staining at Day 5", "setting": "murine corneas; naive NETs, heparinized NETs or OSM NAb incubated NETs applied to naïve murine corneas for five consecutive days", "value": "0.80±0.49"}, {"measurement": "extracellular structures (green strands) of mucocellular aggregates", "setting": "[7]", "value": "dissolved"}]}
{"molecule": "B1", "values": [{"measurement": "corneal fluorescein staining at Day 5", "setting": "mouse corneas", "value": "8.75±0.48"}]}
{"molecule": "B2", "values": [{"measurement": "fluorescence intensity of LipidTox Green neutral lipid stain (accumulation of lipids)", "setting": "[5]; [8]", "value": "10.88±0.35", "unit": "A.U"}, {"measurement": "MG cell proliferation", "setting": "human MG cells", "value": "significantly decreased"}]}
